“And” between values parts separate entries of the source, which are not always exact repeats. Equal entries are not always repeated.
Assay: molar heat capacity at constant pressure; xn = mol fraction of the nth substance listed
Conditions: 100 kPa

[Si] [silicon] + [Li]
Conditions | molar heat capacity at constant pressure
298.15 K, Crystal of intercomponent compound 2, relaxation calorimetry + DSC, x2 = 0.804 | 22.75 J/K/mol
298.32 K, Crystal of intercomponent compound 1, relaxation calorimetry, x2 = 0.81 | 21.66 J/K/mol
298.33 K, Crystal of intercomponent compound 2, relaxation calorimeter, x2 = 0.804 | 22.58 J/K/mol
300 K, Crystal of intercomponent compound 1, relaxation calorimetry + DSC, x2 = 0.81 | 22.58 J/K/mol
300 K, Crystal of intercomponent compound 2, relaxation calorimetry + DSC, x2 = 0.804 | 22.79 J/K/mol
302.31 K, Crystal of intercomponent compound 1, relaxation calorimetry, x2 = 0.81 | 21.75 J/K/mol
302.34 K, Crystal of intercomponent compound 2, relaxation calorimeter, x2 = 0.804 | 22.69 J/K/mol
304.67 K, Crystal of intercomponent compound 2, Small sample (50 mg) DSC, x2 = 0.804 | 23.11 J/K/mol and 23.16 J/K/mol
304.7 K, Crystal of intercomponent compound 1, Small sample (50 mg) DSC, x2 = 0.81 | 22.87 J/K/mol and 22.84 J/K/mol
304.7 K, Crystal of intercomponent compound 2, Small sample (50 mg) DSC, x2 = 0.804 | 23.05 J/K/mol
304.87 K, Crystal of intercomponent compound 1, Small sample (50 mg) DSC, x2 = 0.81 | 22.81 J/K/mol
304.88 K, Crystal of intercomponent compound 1, Small sample (50 mg) DSC, x2 = 0.81 | 22.77 J/K/mol
314.59 K, Crystal of intercomponent compound 2, Small sample (50 mg) DSC, x2 = 0.804 | 23.41 J/K/mol and 23.55 J/K/mol
314.61 K, Crystal of intercomponent compound 1, Small sample (50 mg) DSC, x2 = 0.81 | 23.01 J/K/mol and 23.1 J/K/mol
314.61 K, Crystal of intercomponent compound 2, Small sample (50 mg) DSC, x2 = 0.804 | 23.42 J/K/mol
314.8 K, Crystal of intercomponent compound 1, Small sample (50 mg) DSC, x2 = 0.81 | 22.99 J/K/mol
314.81 K, Crystal of intercomponent compound 1, Small sample (50 mg) DSC, x2 = 0.81 | 22.91 J/K/mol
320 K, Crystal of intercomponent compound 1, relaxation calorimetry + DSC, x2 = 0.81 | 23.07 J/K/mol
320 K, Crystal of intercomponent compound 2, relaxation calorimetry + DSC, x2 = 0.804 | 23.22 J/K/mol
324.51 K, Crystal of intercomponent compound 2, Small sample (50 mg) DSC, x2 = 0.804 | 23.8 J/K/mol and 23.85 J/K/mol
324.52 K, Crystal of intercomponent compound 1, Small sample (50 mg) DSC, x2 = 0.81 | 23.19 J/K/mol and 23.22 J/K/mol
324.52 K, Crystal of intercomponent compound 2, Small sample (50 mg) DSC, x2 = 0.804 | 23.8 J/K/mol
324.71 K, Crystal of intercomponent compound 1, Small sample (50 mg) DSC, x2 = 0.81 | 23.19 J/K/mol
324.72 K, Crystal of intercomponent compound 1, Small sample (50 mg) DSC, x2 = 0.81 | 23.11 J/K/mol
334.42 K, Crystal of intercomponent compound 2, Small sample (50 mg) DSC, x2 = 0.804 | 24.09 J/K/mol and 24.14 J/K/mol
334.43 K, Crystal of intercomponent compound 2, Small sample (50 mg) DSC, x2 = 0.804 | 24.12 J/K/mol
334.44 K, Crystal of intercomponent compound 1, Small sample (50 mg) DSC, x2 = 0.81 | 23.32 J/K/mol and 23.34 J/K/mol
334.63 K, Crystal of intercomponent compound 1, Small sample (50 mg) DSC, x2 = 0.81 | 23.4 J/K/mol
334.64 K, Crystal of intercomponent compound 1, Small sample (50 mg) DSC, x2 = 0.81 | 23.38 J/K/mol
340 K, Crystal of intercomponent compound 1, relaxation calorimetry + DSC, x2 = 0.81 | 23.51 J/K/mol
340 K, Crystal of intercomponent compound 2, relaxation calorimetry + DSC, x2 = 0.804 | 23.65 J/K/mol
344.33 K, Crystal of intercomponent compound 2, Small sample (50 mg) DSC, x2 = 0.804 | 24.3 J/K/mol and 24.38 J/K/mol
344.35 K, Crystal of intercomponent compound 1, Small sample (50 mg) DSC, x2 = 0.81 | 23.65 J/K/mol and 23.63 J/K/mol
344.35 K, Crystal of intercomponent compound 2, Small sample (50 mg) DSC, x2 = 0.804 | 24.37 J/K/mol
344.54 K, Crystal of intercomponent compound 1, Small sample (50 mg) DSC, x2 = 0.81 | 23.6 J/K/mol
344.55 K, Crystal of intercomponent compound 1, Small sample (50 mg) DSC, x2 = 0.81 | 23.53 J/K/mol
354.24 K, Crystal of intercomponent compound 2, Small sample (50 mg) DSC, x2 = 0.804 | 24.56 J/K/mol and 24.6 J/K/mol
354.26 K, Crystal of intercomponent compound 1, Small sample (50 mg) DSC, x2 = 0.81 | 23.98 J/K/mol and 23.97 J/K/mol
354.26 K, Crystal of intercomponent compound 2, Small sample (50 mg) DSC, x2 = 0.804 | 24.57 J/K/mol
354.45 K, Crystal of intercomponent compound 1, Small sample (50 mg) DSC, x2 = 0.81 | 23.8 J/K/mol

From the NIST ThermoML archive (doi:10.1016/j.jct.2015.01.004)
